From ChEMBL document CHEMBL1142397, “Antineoplastic agents. 536. New sources of naturally occurring cancer cell growth inhibitors from marine organisms, terrestrial plants, and microorganisms(1a,)” (J Nat Prod, 2008)
Converted amounts (≈) assume the structure as drawn. Starred links: 1 amine or outer side, 2 acyl side, 3 side chain; linkers in the order of their positions; H or OH if unused. Positions of bridges follow the written chain, without caps; N, C: chain ends. Non-standard residues stand in square brackets, D forms with d. Residues, ends and D or L forms follow the SMILES beside them. Chains are numbered I, II in the order given. Actinocin(1to9) = Cc1c2oc3c(C)ccc(C(=O)[*:2])c3nc-2c(C(=O)[*:1])c(N)c1=O; X1 = CCC(N[*:1])C(C)C(=O)O[C@H](C(=O)[*:2])[C@@H](C)CC; X2 = C[C@H](N[*:1])C(=O)C(C)(C)C(=O)[*:2]; NMeY = CN[C@@H](Cc1ccc(O)cc1)C(=O)O; NMeI = CC[C@H](C)[C@H](NC)C(=O)O; NMeV = CN[C@H](C(=O)O)C(C)C; Sar = CNCC(=O)O

Columns and labels:
P388 = test: Cytotoxicity against mouse P388 cells assessed as concentration required for 50% inhibition; format: functional
BXPC-3 = test: Cytotoxicity against human BXPC3 cells assessed as concentration required for 50% inhibition; format: functional
KM-20L2 = test: Cytotoxicity against human KM20L2 cells assessed as concentration required for 50% inhibition; format: functional
NCI-H460 = test: Cytotoxicity against human NCIH460 cells assessed as concentration required for 50% inhibition; format: functional
DU-145 = test: Cytotoxicity against human DU145 cells assessed as concentration required for 50% inhibition; format: functional
SF-295 = test: Cytotoxicity against human SF295 cells assessed as concentration required for 50% inhibition; format: functional
OVCAR-3 = test: Cytotoxicity against human OVCAR-3 cells assessed as concentration required for 50% inhibition; format: functional
HL-60 = test: Cytotoxicity against human HL60 cells; format: functional, cell-based
A549 = test: Cytotoxicity against human A549 cells; format: functional, cell-based
HeLa = test: Cytotoxicity against human HeLa cells; format: functional, cell-based
SF-268 = test: Cytotoxicity against human SF268 cells assessed as concentration required for 50% inhibition; format: functional
MCF7 = test: Cytotoxicity against human MCF7 cells assessed as concentration required for 50% inhibition; format: functional
SK-MEL-5 = test: Cytotoxicity against human SK-MEL-5 cells assessed as concentration required for 50% inhibition; format: functional
A498 = test: Cytotoxicity against human A498 cells assessed as concentration required for 50% inhibition; format: functional
Vero = test: Cytotoxicity against african green monkey Vero cells; format: functional, cell-based; details: Chlorocebus sabaeus
[1] = system: Mycobacterium tuberculosis; test: Antibacterial activity against Mycobacterium tuberculosis; format: functional

| SMILES | Activity (P388) [µg/mL] | Activity (BXPC-3) [µg/mL] | Activity (KM-20L2) [µg/mL] | Activity (NCI-H460) [µg/mL] | Activity (DU-145) [µg/mL] | Activity (SF-295) [µg/mL] | Activity (OVCAR-3) [µg/mL] | other results |
| --- | --- | --- | --- | --- | --- | --- | --- | --- |
| COc1c(C)c2c(c(O)c1C/C=C(C)/C=C/C(=O)O)C(=O)OC2 | 0.11 | – | – | – | – | – | – | – |
| COc1cc([C@@H]2c3cc4c(c(O[C@@H]5O[C@H](CO)[C@@H](O)[C@H](O)[C@H]5O)c3C[C@H]3COC(=O)[C@@H]32)OCO4)cc(OC)c1OC | 0.21 | >1 | >1 | 0.28 | >1 | 0.27 | 0.85 | – |
| CS[C@@H]1[C@H]2C(=O)N(C)[C@@H](C(C)C)C(=O)OC[C@@H](NC(=O)c3cnc4ccccc4n3)C(=O)N[C@@H](C)C(=O)N(C)[C@@H](C[S+]1[O-])C(=O)N(C)[C@@H](C(C)C)C(=O)OC[C@@H](NC(=O)c1cnc3ccccc3n1)C(=O)N[C@@H](C)C(=O)N2C (stereo partly specified) | – | – | – | – | – | – | – | IC50 (HL-60): 0.2 µg/mL (≈ 0.179 µM); IC50 (A549): 0.2 µg/mL (≈ 0.179 µM); IC50 (HeLa): 0.2 µg/mL (≈ 0.179 µM) |
| CC[C@H](C)[C@@H]1NC(=O)[C@H](CC(C)C)NC(=O)[C@@H]2CCCN2C(=O)[C@H](C(C)C)NC(=O)[C@H](Cc2ccc(O)cc2)NC(=O)[C@@H]2CCCN2C(=O)[C@@H]2CCCN2C(=O)[C@H](CC(C)C)NC1=O [AXINASTATIN 5] (cyclo(ILPPYVPL)) | 1.9 | 0.68 | 0.28 | 0.82 | 0.87 | – | – | Activity (SF-268): 1.8 µg/mL; Activity (MCF7): 1.4 µg/mL |
| CCCCCCCCCCCCCC(=O)O[C@H]1CC[C@H](NC(=O)[C@H](OC)[C@H](O)[C@@H](O)[C@H](O)/C=C/C(C)C)C(=O)NC1 [BENGAMIDE A] | 0.12 | 0.027 | 0.0049 | 0.00054 | 0.0056 | 0.001 | 0.01 | – |
| CCCCCCCCCCCCCC(=O)O[C@@H](c1cnco1)c1nc([C@@H](O)C[C@@H](O)[C@@H](O)[C@@H](C)O)co1 [BENGAZOLE A] | 0.14 | 0.14 | 0.0031 | 0.21 | 0.15 | 0.19 | 0.28 | – |
| CC(C)CCCCCCCCCCCC(=O)O[C@@H](c1cnco1)c1nc([C@@H](O)C[C@@H](O)[C@@H](O)[C@@H](C)O)co1 [BENGAZOLE B] | 0.053 | 0.18 | 0.33 | 0.2 | 0.15 | 0.19 | 0.37 | – |
| CCCCCCCCCCCCCCC(=O)O[C@@H](c1cnco1)c1nc([C@@H](O)C[C@@H](O)[C@@H](O)[C@@H](C)O)co1 [BENGAZOLE E] | 0.074 | 0.081 | 0.18 | 0.14 | 0.11 | 0.13 | 0.16 | – |
| COc1cc([C@@H]2c3cc4c(c(O)c3C[C@H]3COC(=O)[C@@H]32)OCO4)cc(OC)c1OC [BETA-PELTATIN A] | 0.0031 | 0.0012 | 0.0076 | 0.00077 | 0.0021 | 0.0004 | 0.00055 | – |
| C[C@H]1CCC/C=C/[C@@H]2C[C@H](O)C[C@H]2[C@H](O)/C=C/C(=O)O1 [BREFELDIN A] | 0.23 | 0.07 | 0.022 | 0.28 | 0.13 | 0.38 | 0.041 | Activity (SF-268): 0.21 µg/mL; Activity (MCF7): 0.047 µg/mL |
| CC[C@H]1CN2CCc3cc(OC)c(OC)cc3[C@@H]2C[C@@H]1C[C@H]1NCCc2cc(O)c(OC)cc21 [CEPHAELINE] | 0.0027 | 0.024 | 0.022 | 0.022 | 0.0098 | 0.018 | 0.032 | – |
| Cc1c2oc3c(C)ccc(C(=O)N[C@@H]4C(=O)N[C@H](C(C)C)C(=O)N5CCC[C@H]5C(=O)N(C)CC(=O)N(C)[C@@H](C(C)C)C(=O)O[C@@H]4C)c3nc-2c(C(=O)N[C@@H]2C(=O)N[C@H](C(C)C)C(=O)N3CCC[C@H]3C(=O)N(C)CC(=O)N(C)[C@@H](C(C)C)C(=O)O[C@@H]2C)c(N)c1=O [DACTINOMYCIN] (I: T[dV]P[Sar][NMeV] / II: T[dV]P[Sar][NMeV]; ester I:1-I:C, II:1-II:C; linker I:N-II:N via Actinocin(1to9)) | <0.001 | – | – | – | – | – | – | – |
| O=c1c(-c2ccc(O)cc2)coc2cc(O)ccc12 [DAIDZEIN] | – | 6.2 | 8.8 | >10 | 7.3 | – | – | Activity (SF-268): 4.4 µg/mL; Activity (MCF7): 5.1 µg/mL |
| NC1=N/C(=C2/CCNC(=O)c3[nH]ccc32)C(=O)N1 [DEBROMOHYMENIALDISINE] | 5 | – | – | – | – | – | – | – |
| COc1cc([C@@H]2c3cc4c(cc3C[C@H]3COC(=O)[C@@H]32)OCO4)cc(OC)c1OC [DESOXYPODOPHYLLOTOXIN] | 0.029 | 0.00044 | 0.0014 | 0.0018 | 0.0017 | 0.00056 | 0.0027 | – |
| CS[C@H]1SC[C@H]2C(=O)N(C)[C@@H](C(C)C)C(=O)OC[C@@H](NC(=O)c3cnc4ccccc4n3)C(=O)N[C@@H](C)C(=O)N(C)[C@@H]1C(=O)N(C)[C@@H](C(C)C)C(=O)OC[C@@H](NC(=O)c1cnc3ccccc3n1)C(=O)N[C@@H](C)C(=O)N2C [ECHINOMYCIN] | 0.00147 | – | – | – | – | – | – | – |
| O=c1c(-c2ccc(O)cc2)coc2cc(O)cc(O)c12 [GENISTEIN] | – | 2.5 | 3.7 | 1.5 | 1.9 | – | – | Activity (SF-268): 1.7 µg/mL; Activity (MCF7): 2.5 µg/mL |
| NC1=NC(=O)/C(=C2\CCNC(=O)c3[nH]c(Br)cc32)N1 [HYMENIALDISINE] | 2.4 | – | – | – | – | – | – | – |
| COc1cc([C@H]2c3cc4c(cc3C[C@H]3COC(=O)[C@H]32)OCO4)cc(OC)c1OC [ISOPICRODEOXYPODOPHYLLOTOXIN] | <0.01 | – | – | – | – | – | – | – |
| C/C1=C\[C@H](C)C[C@H](C)OC(=O)C[C@H](c2ccc(O)cc2)NC(=O)[C@@H](Cc2c(Br)[nH]c3ccccc23)N(C)C(=O)[C@H](C)NC(=O)[C@@H](C)C1 [JASPAMIDE] | 0.008 | – | – | – | – | – | – | – |
| CCC1NC(=O)[C@H](C)NC(=O)C(C)(C)C(=O)[C@H](C)NC(=O)[C@H](Cc2ccc(OC)cc2)N(C)C(=O)[C@H](C(C)C)N(C)C(=O)CNC(=O)[C@H]([C@@H](C)CC)N(C)C(=O)CNC(=O)[C@H]([C@@H](C)CC)OC(=O)C1C (stereo partly specified) [MAJUSCULAMIDE C] (cyclo(A[X1]G[NMeI]G[NMeV][NMeY](Me)[X2])) | – | – | 0.0013 | 0.0032 | – | 0.13 | 0.51 | Activity (SK-MEL-5): 0.0068 µg/mL; Activity (A498): 0.058 µg/mL |
| Cl.O[C@]12C=C(c3nccc4c3[nH]c3ccccc34)[C@@H]3CCN(CCCC/C=C\CC1)C[C@@]31C[C@@H]3/C=C\CCCCN3[C@H]12 [MANZAMINE A HCL] | 0.0067 | 0.35 | 0.37 | 0.36 | 0.6 | – | – | Activity (SF-268): 0.42 µg/mL; IC50 (Vero): 1.7 µg/mL; Activity [1]: 99%; MIC ([1]; Mycobacterium tuberculosis): 6.25 µg/mL; Activity (MCF7): 0.41 µg/mL |
| C\C(=C/C=C/C(C)=C1/C(=O)C[C@H]2[C@@]3(C)CCC(=O)C(C)(C)[C@@H]3CC[C@]12C)c1ccc(C)c(=O)o1 [STELLETIN A] | 0.012 | 0.078 | – | – | – | – | – | Activity (MCF7): 0.752 µg/mL |
| CC(/C=C/C=C(\C)c1ccc(C)c(=O)o1)=C1/C(=O)C[C@H]2[C@@]3(C)CCC(=O)C(C)(C)[C@@H]3CC[C@]12C [STELLETTIN B] | 0.037 | – | – | – | – | – | – | – |
| N#Cc1cn([C@@H]2O[C@H](CO)[C@@H](O)[C@H]2O)c2ncnc(N)c12 [TOYOCAMYCIN] | 0.0023 | – | – | – | – | – | – | – |
| C[C@H]1[C@H](C)CC[C@]2(C(=O)O)CC[C@]3(C)C(=CC[C@@H]4[C@@]5(C)CC[C@H](O)C(C)(C)[C@@H]5CC[C@]43C)[C@H]12 [URSOLIC ACID] | >1 | – | – | – | – | – | – | – |
